According to ChEMBL document CHEMBL1155271, “Synthesis, crystal structures and antibacterial activity studies of aza-derivatives of phytoalexin from cotton plant--gossypol” (2009):
Values after ≈ are worked out from the molar mass of the structure shown. Active and inactive are the calls of the source. The rule behind the calls is not given here.

How the values were obtained:
Format in all cases: functional
[1] = test system: Staphylococcus aureus; assay: Antimicrobial activity against Methicillin susceptible Staphylococcus aureus 213/7 by twofold dilution technique
[2] = test system: Staphylococcus aureus; assay: Antimicrobial activity against Methicillin susceptible Staphylococcus aureus 237/7 by twofold dilution technique
[3] = test system: Staphylococcus aureus; assay: Antimicrobial activity against Methicillin susceptible Staphylococcus aureus 238/7 by twofold dilution technique
[4] = test system: Staphylococcus aureus; assay: Antimicrobial activity against Methicillin susceptible Staphylococcus aureus 239/7 by twofold dilution technique
[5] = test system: Staphylococcus aureus; assay: Antimicrobial activity against Methicillin susceptible Staphylococcus aureus 242/7 by twofold dilution technique
[6] = test system: Staphylococcus aureus; assay: Antimicrobial activity against Methicillin susceptible Staphylococcus aureus 243/7 by twofold dilution technique
[7] = test system: Staphylococcus aureus; assay: Antimicrobial activity against methicillin-resistant Staphylococcus aureus 140/6 by twofold dilution technique
[8] = test system: Staphylococcus aureus; assay: Antimicrobial activity against methicillin-resistant Staphylococcus aureus 141/6 by twofold dilution technique
[9] = test system: Staphylococcus aureus; assay: Antimicrobial activity against methicillin-resistant Staphylococcus aureus 143/6 by twofold dilution technique
[10] = test system: Staphylococcus aureus; assay: Antimicrobial activity against methicillin-resistant Staphylococcus aureus 144/6 by twofold dilution technique
[11] = test system: Staphylococcus aureus; assay: Antimicrobial activity against methicillin-resistant Staphylococcus aureus 146/6 by twofold dilution technique
[12] = test system: Staphylococcus aureus; assay: Antimicrobial activity against methicillin-resistant Staphylococcus aureus 200/7 by twofold dilution technique
[13] = test system: Staphylococcus aureus; assay: Antimicrobial activity against methicillin-resistant Staphylococcus aureus 217/7 by twofold dilution technique
[14] = test system: Staphylococcus aureus; assay: Antimicrobial activity against methicillin-resistant Staphylococcus aureus 218/7 by twofold dilution technique
[15] = test system: Staphylococcus aureus; assay: Antimicrobial activity against methicillin-resistant Staphylococcus aureus 236/7 by twofold dilution technique
[16] = test system: Staphylococcus aureus; assay: Antimicrobial activity against Staphylococcus aureus NCTC 4163 at 400 ug after 18 hrs by disk diffusion method; conditions: NCTC 4163, 18 h, read-out: DIZ
[17] = test system: Staphylococcus epidermidis; assay: Antimicrobial activity against Staphylococcus epidermidis ATCC 12228 at 400 ug after 18 hrs by disk diffusion method; conditions: ATCC 12228, 18 h, read-out: DIZ
[18] = test system: Bacillus subtilis; assay: Antimicrobial activity against Bacillus subtilis ATCC 6633 at 400 ug after 18 hrs by disk diffusion method; conditions: ATCC 6633, 18 h, read-out: DIZ
[19] = test system: Bacillus cereus; assay: Antimicrobial activity against Bacillus cereus ATCC 11778 at 400 ug after 18 hrs by disk diffusion method; conditions: ATCC 11778, 18 h, read-out: DIZ
[20] = test system: Enterococcus hirae; assay: Antimicrobial activity against Enterococcus hirae ATCC 10541 at 400 ug after 18 hrs by disk diffusion method; conditions: ATCC 10541, 18 h, read-out: DIZ
[21] = test system: Micrococcus luteus; assay: Antimicrobial activity against Micrococcus luteus ATCC 9341 at 400 ug after 18 hrs by disk diffusion method
[22] = test system: Micrococcus luteus; assay: Antimicrobial activity against Micrococcus luteus ATCC 10240 at 400 ug after 18 hrs by disk diffusion method; conditions: ATCC 10240, 18 h, read-out: DIZ
[23] = test system: Staphylococcus aureus; assay: Antimicrobial activity against Staphylococcus aureus ATCC 25923 at 400 ug after 18 hrs by disk diffusion method; conditions: ATCC 25923, 18 h, read-out: DIZ
[24] = test system: Staphylococcus aureus; assay: Antimicrobial activity against Staphylococcus aureus ATCC 6538 at 400 ug after 18 hrs by disk diffusion method; conditions: ATCC 6538, 18 h, read-out: DIZ
[25] = test system: Staphylococcus aureus; assay: Antimicrobial activity against Staphylococcus aureus ATCC 29213 at 400 ug after 18 hrs by disk diffusion method; conditions: ATCC 29213, 18 h, read-out: DIZ
[26] = test system: Staphylococcus aureus; assay: Antimicrobial activity against Staphylococcus aureus NCTC 4163 after 18 hrs by twofold dilution technique; conditions: NCTC 4163, 18 h
[27] = test system: Staphylococcus aureus; assay: Antimicrobial activity against Staphylococcus aureus ATCC 25923 after 18 hrs by twofold dilution technique; conditions: ATCC 25923, 18 h
[28] = test system: Staphylococcus aureus; assay: Antimicrobial activity against Staphylococcus aureus ATCC 6538 after 18 hrs by twofold dilution technique; conditions: ATCC 6538, 18 h
[29] = test system: Staphylococcus aureus; assay: Antimicrobial activity against Staphylococcus aureus ATCC 29213 after 18 hrs by twofold dilution technique; conditions: ATCC 29213, 18 h
[30] = test system: Staphylococcus epidermidis; assay: Antimicrobial activity against Staphylococcus epidermidis ATCC 12228 by twofold dilution technique
[31] = test system: Bacillus subtilis; assay: Antimicrobial activity against Bacillus subtilis ATCC 6633 after 18 hrs by twofold dilution technique; conditions: ATCC 6633, 18 h
[32] = test system: Bacillus cereus; assay: Antimicrobial activity against Bacillus cereus ATCC 11778 after 18 hrs by twofold dilution technique; conditions: ATCC 11778, 18 h
[33] = test system: Enterococcus hirae; assay: Antimicrobial activity against Enterococcus hirae ATCC 10541 after 18 hrs by twofold dilution technique; conditions: ATCC 10541, 18 h
[34] = test system: Micrococcus luteus; assay: Antimicrobial activity against Micrococcus luteus ATCC 9341 after 18 hrs by twofold dilution technique; conditions: ATCC 9341, 18 h
[35] = test system: Micrococcus luteus; assay: Antimicrobial activity against Micrococcus luteus ATCC 10240 by twofold dilution technique
[36] = test system: Staphylococcus aureus; assay: Antimicrobial activity against methicillin-resistant Staphylococcus aureus 136/6 by twofold dilution technique
[37] = test system: Staphylococcus aureus; assay: Antimicrobial activity against Methicillin susceptible Staphylococcus aureus 206/7 by twofold dilution technique
[38] = test system: Staphylococcus aureus; assay: Antimicrobial activity against Methicillin susceptible Staphylococcus aureus 207/7 by twofold dilution technique
[39] = test system: Staphylococcus aureus; assay: Antimicrobial activity against Methicillin susceptible Staphylococcus aureus 208/7 by twofold dilution technique
[40] = test system: Staphylococcus aureus; assay: Antimicrobial activity against Methicillin susceptible Staphylococcus aureus 212/7 by twofold dilution technique

| Structure (SMILES) | MIC [1] [µg/mL] | MIC [2] [µg/mL] | MIC [3] [µg/mL] | MIC [4] [µg/mL] | MIC [5] [µg/mL] | MIC [6] [µg/mL] | MIC [7] [µg/mL] | MIC [8] [µg/mL] | MIC [9] [µg/mL] | MIC [10] [µg/mL] | MIC [11] [µg/mL] | MIC [12] [µg/mL] | MIC [13] [µg/mL] | MIC [14] [µg/mL] | MIC [15] [µg/mL] | zone of inhibition at 400 µg/disc [16] [mm] | zone of inhibition at 400 µg/disc [17] [mm] | zone of inhibition at 400 µg/disc [18] [mm] | zone of inhibition at 400 µg/disc [19] [mm] | zone of inhibition at 400 µg/disc [20] [mm] | further results |
| --- | --- | --- | --- | --- | --- | --- | --- | --- | --- | --- | --- | --- | --- | --- | --- | --- | --- | --- | --- | --- | --- |
| Cc1cc2c(c(O)c1-c1c(C)cc3c(c1O)/C(=C/NCCC(=O)N[C@@H](Cc1c[nH]cn1)C(=O)O)C(=O)C(O)=C3C(C)C)/C(=C/NCCC(=O)N[C@@H](Cc1c[nH]cn1)C(=O)O)C(=O)C(O)=C2C(C)C | 100 (≈ 107 µM) | 50 (≈ 53.5 µM) | 50 (≈ 53.5 µM) | 100 (≈ 107 µM) | 25 (≈ 26.7 µM) | 100 (≈ 107 µM) | 100 (≈ 107 µM) | 100 (≈ 107 µM) | 100 (≈ 107 µM) | 100 (≈ 107 µM) | 50 (≈ 53.5 µM) | 100 (≈ 107 µM) | 100 (≈ 107 µM) | 100 (≈ 107 µM) | 50 (≈ 53.5 µM) | 15 | 14 | 13 | 14 | 12 | diameter of the inhibition zone (DIZ) [21]: inactive; zone of inhibition at 400 µg/disc [22]: 16 mm; zone of inhibition at 400 µg/disc [23]: 15 mm; zone of inhibition at 400 µg/disc [24]: 15 mm; zone of inhibition at 400 µg/disc [25]: 13 mm; MIC [26]: 50 µg/mL (≈ 53.5 µM); MIC [27]: 50 µg/mL (≈ 53.5 µM); MIC [28]: 25 µg/mL (≈ 26.7 µM); MIC [29]: 25 µg/mL (≈ 26.7 µM); MIC [30]: 200 µg/mL (≈ 214 µM); MIC [31]: 200 µg/mL (≈ 214 µM); MIC [32]: 50 µg/mL (≈ 53.5 µM); MIC [33]: 50 µg/mL (≈ 53.5 µM); MIC [34]: 50 µg/mL (≈ 53.5 µM); MIC [35]: 50 µg/mL (≈ 53.5 µM); MIC [36]: 25 µg/mL (≈ 26.7 µM); MIC [37]: 50 µg/mL (≈ 53.5 µM); MIC [38]: 100 µg/mL (≈ 107 µM); MIC [39]: 100 µg/mL (≈ 107 µM); MIC [40]: 100 µg/mL (≈ 107 µM) |
| COCCN/N=C/c1c(O)c(O)c(C(C)C)c2cc(C)c(-c3c(C)cc4c(C(C)C)c(O)c(O)c(/C=N/NCCOC)c4c3O)c(O)c12 | 50 (≈ 75.4 µM) | 100 (≈ 151 µM) | 50 (≈ 75.4 µM) | 100 (≈ 151 µM) | 50 (≈ 75.4 µM) | 100 (≈ 151 µM) | 50 (≈ 75.4 µM) | 100 (≈ 151 µM) | 50 (≈ 75.4 µM) | 100 (≈ 151 µM) | 100 (≈ 151 µM) | 50 (≈ 75.4 µM) | 100 (≈ 151 µM) | 100 (≈ 151 µM) | 100 (≈ 151 µM) | 14 | 15 | 13 | 13 | 11 | diameter of the inhibition zone (DIZ) [21]: inactive; zone of inhibition at 400 µg/disc [22]: 14 mm; zone of inhibition at 400 µg/disc [23]: 15 mm; zone of inhibition at 400 µg/disc [24]: 13 mm; zone of inhibition at 400 µg/disc [25]: 14 mm; MIC [26]: 100 µg/mL (≈ 151 µM); MIC [27]: 50 µg/mL (≈ 75.4 µM); MIC [28]: 50 µg/mL (≈ 75.4 µM); MIC [29]: 50 µg/mL (≈ 75.4 µM); MIC [30]: 400 µg/mL (≈ 604 µM); MIC [31]: 400 µg/mL (≈ 604 µM); MIC [32]: 50 µg/mL (≈ 75.4 µM); MIC [33]: 100 µg/mL (≈ 151 µM); MIC [34]: 50 µg/mL (≈ 75.4 µM); MIC [35]: 100 µg/mL (≈ 151 µM); MIC [36]: 100 µg/mL (≈ 151 µM); MIC [37]: 50 µg/mL (≈ 75.4 µM); MIC [38]: 50 µg/mL (≈ 75.4 µM); MIC [39]: 50 µg/mL (≈ 75.4 µM); MIC [40]: 100 µg/mL (≈ 151 µM) |
